Measurements: US20220030868A1, “FUNGICIDAL HALOMETHYL KETONES AND HYDRATES” (FMC CORPORATION, priority 2018, published 2022)

Experiments:
Type in all cases: in vivo
[1] = test system: Phakopsora pachyrhizi; test: Test A: test suspension sprayed on soybean seedlings one day before inoculation with Phakopsora pachyrhizi spores (Asian soybean rust), visual disease rating; details: 100 = 100% disease control, 0 = no control; for pest or weed control at 10 ppm / Test A rating (disease control): 10 ppm test suspension
Summary of the method: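 Soybean seedlings were sprayed to run-off with test suspension (acetone 3% of volume, acetone/water 50/50, 250 ppm PEG400) and inoculated with rust spores one day later. Incubation: 24 h saturated atmosphere at 22° C, then 8 days growth chamber at 22° C; scores 0–100 relative to untreated controls.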

[2] = test system: Puccinia recondita f. sp. tritici; test: Test B: test suspension sprayed on wheat seedlings one day before inoculation with Puccinia recondita f. sp. tritici spores (wheat leaf rust), disease rating; details: 100 = 100% disease control, 0 = no control; for pest or weed control at 10 ppm / Test B rating (disease control): 10 ppm test suspension
Summary of the method: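 Wheat seedlings were sprayed to run-off with compound suspended in 50/50 acetone/water containing 250 ppm PEG400, then inoculated with P. recondita f. sp. tritici spores the next day. Plants were held 24 h in saturated air at 20 °C, then 6 days in a growth chamber at 20 °C. Disease control was rated 0–100% relative to controls, with some entries run at 50 or 10 ppm.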

[3] = test system: Uncinula necator; test: Test C: test suspension sprayed on grape seedlings one day before inoculation with Uncinula necator spores (grape powdery mildew), disease rating; details: Erysiphe necator, 100 = 100% disease control; for pest or weed control at 50 ppm: 50 ppm test suspension
Description: General protocol for preparing test suspensions for Tests A-C: the test compounds were first dissolved in acetone in an amount equal to 3% of the final volume and then suspended at the desired concentration (in ppm) in acetone and purified water (50/50 mix by volume) containing 250 ppm of the surfactant PEG400 (polyhydric alcohol esters). The resulting test suspensions were then used in Tests A-C. The test solution was sprayed to the point of run-off on grape seedlings. The following day the seedlings were inoculated with a spore suspension of Uncinula necator (the causal agent of grape powdery mildew) and incubated in a growth chamber at 20° C. for 12 days, after which time disease ratings were made. Results for Tests A-C are given in Table A. In the Table, a rating of 100 indicates 100% disease control and a rating of 0 indicates no disease control (relative to the controls). An asterisk “*” or a double asterisk “**” next to the rating value indicates a 50 ppm or 10 ppm test suspension was used, respectively. A dash (-) indicates the compound was not tested.

Compound	pest or weed control at 50 ppm [3] [%]	Test A rating (disease control) [1] [%]	Test B rating (disease control) [2] [%]	further results
CCOC(=O)c1cnn(Cc2ccc(OCC3(C(F)(F)F)OCCO3)cc2)c1 [Compound 32, ethyl 1-[[4-[[2-(trifluoromethyl)-1,3-dioxolan-2-yl]methoxy]phenyl]methyl]-1H-pyrazole-4-carboxylate]	100			pest or weed control at 50 ppm ([1]; Phakopsora pachyrhizi, 50 ppm test suspension): 100%; pest or weed control at 50 ppm ([2]; 50 ppm test suspension): 68%
CCOC(=O)c1cnn(Cc2ccc(O/C=C(\OCC)C(F)(F)F)cc2)c1 [Compound 64, ethyl 1-[[4-[[(1Z)-2-ethoxy-3,3,3-trifluoro-1-propen-1-yl]oxy]phenyl]methyl]-1H-pyrazole-4-carboxylate]				pest or weed control at 250 ppm ([1]; Phakopsora pachyrhizi, 250 ppm test suspension): 100%; pest or weed control at 250 ppm ([2]; 250 ppm test suspension): 99%; pest or weed control at 10 ppm ([3]; 10 ppm test suspension (double asterisk)): 100%
CC(C)COC(=O)c1cnn(Cc2ccc(OCC3(C(F)(F)F)OCCO3)cc2)c1 [Compound 126, 2-methylpropyl 1-[[4-[[2-(trifluoromethyl)-1,3-dioxolan-2-yl]methoxy]phenyl]methyl]-1H-pyrazole-4-carboxylate]	100			pest or weed control at 10 ppm ([1]; Phakopsora pachyrhizi): 100%; pest or weed control at 10 ppm [2]: 0%
O=C(OCC1CC1)c1cnn(Cc2ccc(OCC3(C(F)(F)F)OCCO3)cc2)c1 [Compound 127, cyclopropylmethyl 1-[[4-[[2-(trifluoromethyl)-1,3-dioxolan-2-yl]methoxy]phenyl]methyl]-1H-pyrazole-4-carboxylate]	100			pest or weed control at 10 ppm ([1]; Phakopsora pachyrhizi): 100%; pest or weed control at 10 ppm [2]: 0%
CCOC(=O)c1cnn(CCc2ccc(O/C=C(\OCC)C(F)(F)F)cc2)c1 [Compound 132, ethyl 1-[2-[4-[[(1Z)-2-ethoxy-3,3,3-trifluoro-1-propen-1-yl]oxy]phenyl]ethyl]-1H-pyrazole-4-carboxylate]	98			pest or weed control at 10 ppm ([1]; Phakopsora pachyrhizi): 100%; pest or weed control at 10 ppm [2]: 0%
COCCOC(=O)c1cnn(Cc2ccc(OCC3(C(F)(F)F)OCCO3)cc2)c1 [Compound 162, 2-methoxyethyl 1-[[4-[[2-(trifluoromethyl)-1,3-dioxolan-2-yl]methoxy]phenyl]methyl]-1H-pyrazole-4-carboxylate]	100			pest or weed control at 10 ppm ([1]; Phakopsora pachyrhizi): 100%; pest or weed control at 10 ppm [2]: 0%
CC#CCOC(=O)c1cnn(Cc2ccc(OCC3(C(F)(F)F)OCCO3)cc2)c1 [Compound 163, 2-butyn-1-yl 1-[[4-[[2-(trifluoromethyl)-1,3-dioxolan-2-yl]methoxy]phenyl]methyl]-1H-pyrazole-4-carboxylate]	100			pest or weed control at 10 ppm ([1]; Phakopsora pachyrhizi): 100%; pest or weed control at 10 ppm [2]: 0%
N#CCCCOC(=O)c1cnn(Cc2ccc(OCC3(C(F)(F)F)OCCO3)cc2)c1 [Compound 171, 3-cyanopropyl 1-[[4-[[2-(trifluoromethyl)-1,3-dioxolan-2-yl]methoxy]phenyl]methyl]-1H-pyrazole-4-carboxylate]	99			pest or weed control at 10 ppm ([1]; Phakopsora pachyrhizi): 100%; pest or weed control at 10 ppm [2]: 0%
CCCCOC(=O)c1cnn(Cc2ccc(O/C=C(\OCC)C(F)(F)F)cc2)c1 [Compound 218, butyl 1-[[4-[[(1Z)-2-ethoxy-3,3,3-trifluoro-1-propen-1-yl]oxy]phenyl]methyl]-1H-pyrazole-4-carboxylate]	100			pest or weed control at 10 ppm ([1]; Phakopsora pachyrhizi): 100%; pest or weed control at 10 ppm [2]: 0%
CCO/C(=C\Oc1ccc(Cn2cc(C(=O)OCCCCl)cn2)cc1)C(F)(F)F [Compound 221, 3-chloropropyl 1-[[4-[[(1Z)-2-ethoxy-3,3,3-trifluoro-1-propen-1-yl]oxy]phenyl]methyl]-1H-pyrazole-4-carboxylate]	100			pest or weed control at 10 ppm ([1]; Phakopsora pachyrhizi): 100%; pest or weed control at 10 ppm [2]: 0%
CCOC(=O)c1cnn(Cc2ccc(O/C=C(\OCC)C(F)(F)F)c(F)c2)c1 [Compound 262, ethyl 1-[[4-[[(1Z)-2-ethoxy-3,3,3-trifluoro-1-propen-1-yl]oxy]-3-fluorophenyl]methyl]-1H-pyrazole-4-carboxylate]	99			pest or weed control at 10 ppm ([1]; Phakopsora pachyrhizi): 100%; pest or weed control at 10 ppm [2]: 0%
CCO/C(=C\Oc1ccc(Cn2ccc(C(=O)OC(C)C)n2)cc1)C(F)(F)F [compound 327]		100	0	
CCO/C(=C\Oc1cccc(Cn2cc(C(=O)OC(C)C)cn2)c1)C(F)(F)F [compound 332]		100	0	
C=CCOC(=O)c1cnn(Cc2cccc(O/C=C(\OCC)C(F)(F)F)c2)c1 [compound 333]		100	0	
CCO/C(=C\Oc1cccc(Cn2cc(C(=O)OCC(C)C)cn2)c1)C(F)(F)F [compound 334]		100	0	
C=C(C)COC(=O)c1cnn(Cc2cccc(O/C=C(\OCC)C(F)(F)F)c2)c1 [compound 335]		100	0	

Compound	pest or weed control at 50 ppm [3] [%]	Test A rating (disease control) [1] [%]	Test B rating (disease control) [2] [%]	further results
C#CCOC(=O)c1cnn(Cc2cccc(O/C=C(\OCC)C(F)(F)F)c2)c1 [compound 336]		100	0	
CCO/C(=C\Oc1cccc(Cn2cc(C(=O)OCC(C)=O)cn2)c1)C(F)(F)F [compound 337]		100	0	
CCO/C(=C\Oc1cccc(Cn2cc(C(=O)OCCCCl)cn2)c1)C(F)(F)F [compound 338]		100	0	
CCCCOC(=O)c1cnn(Cc2cccc(O/C=C(\OCC)C(F)(F)F)c2)c1 [compound 339]		100	0	
CCO/C(=C\Oc1cccc(Cn2cc(C(=O)OCCOC)cn2)c1)C(F)(F)F [compound 340]		100	0	
CCO/C(=C\Oc1cccc(Cn2cc(C(=O)OCC3CC3)cn2)c1)C(F)(F)F [compound 341]		100	0	
CCO/C(=C\Oc1cccc(Cn2cc(C(=O)OCC3CCC3)cn2)c1)C(F)(F)F [compound 342]		100	0	
CCNC(=O)c1cnn(Cc2cccc(C/C=C(\OCC)C(F)(F)F)c2)c1 [compound 343]		0	0	
CCCCOC(=O)c1ccn(Cc2ccc(O/C=C(\OCC)C(F)(F)F)cc2)n1 [compound 356]		100	0	
CCO/C(=C\Oc1ccc(Cn2ccc(C(=O)OCC(C)C)n2)cc1)C(F)(F)F [compound 357]		100	9	
C=C(C)COC(=O)c1ccn(Cc2ccc(O/C=C(\OCC)C(F)(F)F)cc2)n1 [compound 358]		100	0	
CCO/C(=C\Oc1ccc(Cn2ccc(C(=O)OCC(C)=O)n2)cc1)C(F)(F)F [compound 359]		100	0	
CCO/C(=C\Oc1ccc(Cn2ccc(C(=O)OCCOC)n2)cc1)C(F)(F)F [compound 360]		100	0	
CCO/C(=C\Oc1ccc(Cn2ccc(C(=O)OCC3CCC3)n2)cc1)C(F)(F)F [compound 361]		100	0	
CCO/C(=C\Oc1ccc(Cn2ccc(C(=O)OCCCCl)n2)cc1)C(F)(F)F [compound 362]		100	0	
